Test results reported in US11628198B2, “Methods for prevention and treatment of acute renal injury” (Cornell University, priority 2008, dated 2023).

Assays:
Type in all cases: in vivo, rat
[1] = system: ARI caused by ureteral obstruction (UUO); test: 14-day UUO model: renal histology (trichrome, interstitial volume); conditions: obstructed kidney
Method: Sprague-Dawley rats underwent unilateral ureteral ligation (UUO) with 4-0 silk suture through a midline abdominal incision under sterile conditions. Ureteral obstruction was carried out by ligating the left ureter at the end of lower ureter, just above the ureterovesical junction.
SS-31 (1 mg/kg or 3 mg/kg; n=8) was administered intraperitoneally, one day prior to UUO and continuing for 14 days. A separate group of animals was given saline, as a vehicle control (n=16).
Renal Histology: Trichrome sections of paraffin embedded specimens were examined by a board-certified pathologist (SVS, renal pathology specialist), and fibrosis scored on a scale of 0-+++.

[2] = system: ARI caused by ischemia-reperfusion (I/R); test: I/R model: renal morphologic examination (H&E, PAS); conditions: 45 min ischemia and 24 h reperfusion
Method: Sprague Dawley rats (250˜300 g) were assigned to four groups: (1) sham surgery group without I/R; (2) I/R+saline vehicle treatment; (3) I/R+SS-20 treatment; (4) I/R+SS-31 treatment. Each experimental group consisted of 8 rats. SS-20 and SS-31 (3 mg/kg, dissolved in saline) were administered to rats 30 min before ischemia and immediately before onset of reperfusion. The control rats were given saline alone on the same schedule.
Rats were anesthetized with a mixture of ketamine (90 mg/kg, i.p.) and xylazine (4 mg/kg, i.p.). The left renal vascular pedicle was occluded temporarily using a micro-clamp for 30 or 45 min. At the end of the ischemic period, reperfusion was established by removing of the clamp. At that time, the contralateral right kidney was removed. After 24 h reperfusion, animals were sacrificed and blood samples were obtained by cardiac puncture. Renal function was determined by blood urea nitrogen (BUN) and serum creatinine (BioAssay Systems DIUR-500 and DICT-500).
Renal Morphologic Examination: Kidneys were fixed in 10% neutral-buffered formalin and embedded in paraffin wax. Three micron sections were stained with hematoxylin-eosin (H&E) and periodic acid-Schiff (PAS) and analyzed by light microscopy. Lesions were scored using the following criteria: [1] mitosis and necrosis of individual cells; [2] necrosis of all cells in adjacent proximal convoluted tubules with survival of surrounding tubules; [3] necrosis confined to the distal third of the proximal convoluted tubule with a band of necrosis extending across the inner cortex; and [4] necrosis affecting all three segments of the proximal convoluted tubule.

ARI caused by cisplatin = test: Cisplatin-induced ARI model
Method: Sprague-Dawley rats (350-400 g) were given a single dose of cisplatin (7 mg/kg) intraperitoneally on Day 1. One group of rats (n=8) received one dose of SS-31 (3 mg/kg) subcutaneously just prior to cisplatin administration, and repeated once daily for 3 more days. A second group of rats (n=8) […] received an equal volume of saline on the day of cisplatin administration and for 3 more days after.
Experimental Protocol: Rats had free access to tap water and standard rat chow prior to cisplatin administration. Control blood samples were obtained from the tail vein before cisplatin administration. Saline or SS-31 (dissolved in saline) was administered to the rats subcutaneously prior to cisplatin injection. Cisplatin (dissolved in saline) was administered at a dose of 7 mg/kg intraperitoneally. All rats then received either saline or SS-31 (3 mg/kg) daily for 3 days. Rat were placed in metabolic cages for the last 24 hours for urine collection. At the end of this period, a blood sample was withdrawn from the tail vein. After this, the animals were anesthetized, kidneys were removed, and the animals euthanized.
Renal function: Renal function was assessed by blood urea nitrogen (BUN), serum creatinine, urine creatinine, and urine protein (Beckman ALX Chemical Analyzer). GFR was estimated from creatinine clearance which was determined from urinary creatinine, urine flow rate, and serum creatinine.
Renal Histology: Kidneys were fixed in 10% neutral-buffered formalin and embedded in paraffin wax. Three micron sections were stained with periodic acid-Schiff (PAS) and analyzed by light microscopy.

[3] = system: contrast induced nephropathy in diabetic animal model; test: CIN in diabetic (HFD/STZ) rats with iohexol, Experiment 1
Method: Animal model: Impaired renal function caused by diabetes is one of the major predisposing factors for contrast induced nephropathy (McCullough, P et al., J. Am. College of Cardiology, 2008, 51, 1419-1428). In this experiment, a total of 57 SD rats were fed with high fat diet for 6 weeks, followed by the injection with low dose streptozotocin (30 mg/kg). After 9 more weeks, the blood glucose, scrum creatinine and Cystatin C was measured. Based on the following selection criteria: Scr>250 μM, Cystatin C>750 ng/ml and blood glucose>=[…], 20 rats were selected to proceed with the contrast induced nephropathy study.
The animals were divided into 2 groups. Group 1 rats were fed administered iohexol and SS-31; Group 2 rats were administered iohexol and a control vehicle. On day 1, serum samples were collected from the rats in each group and total protein in urine was measured using a Bradford assay. On days 2 and 3, 3 mg/kg SS-31 (Group 1) or a vehicle (Group 2) was administered s.c. 30 min prior to the dye injection (6 mL/kg i.v. tail vein). SS-31 (Group 1) or PBS (Group 2) administration was repeated at both 2 h and 24 h post-dye administration. Serum and urine samples were collected at days 4 and 5. The rats were euthaniszed on day 5 to harvest kidneys and vital organs. Samples were analyzed by students t-test and differences were considered significant at p<0.05.
Renal function: Renal function was assessed by determining serum and urinary creatinine using Jiancheng Cr kit (Nanjing, P.R.C) at baseline, 48 h and 72 h following dye administration. The creatinine clearance was calculated based on the Scr, Ucr and Urinary volume. Urinary protein concentration was determined by Bradford Protein Assay kit (Sigma, St. Louis, Mo.). The Cystatin C was measured Westang Rat Cystatin C kit (Shanghai, P.R.C.)

[4] = 3 days after cisplatin, 3 mg/kg s.c. daily

**Q.** D-Arg-2′6′Dmt-Lys-Phe-NH2 [SS-31] was tested. Which “trichrome staining (fibrosis), cortex” value [1] did it give?
**A.** 0-trace

**Q.** And the “trichrome staining (fibrosis), medulla” value [1]?
**A.** tr− 1+

**Q.** What about the medullary interstitial volume ([1]; 1 mg/kg i.p. daily) of the same substance?
**A.** 54.9±2.3%

**Q.** And the medullary interstitial volume ([1]; higher dose)?
**A.** also effective

**Q.** What about the histopathological score [2] of the same substance?
**A.** significantly improved histopathological score

**Q.** And the “tubular cell injury (H&E, PAS)” value [2]?
**A.** protected brush border and prevented necrosis in the proximal tubules

**Q.** And the “rats with no change in serum creatinine (<0.4 mg/dl)” value (ARI caused by cisplatin; 3 days after cisplatin)?
**A.** 5 out of 8

**Q.** What about the BUN (ARI caused by cisplatin; [4]) of the same substance?
**A.** 29.3 ± 25 mg/dL

**Q.** What about the Kidney weight (ARI caused by cisplatin; [4]) of the same substance?
**A.** 1.6 ± 0.2 g

**Q.** And the body weight (ARI caused by cisplatin; [4])?
**A.** 384 ± 28 g

**Q.** And the serum creatinine (ARI caused by cisplatin; [4])?
**A.** 0.8 ± 0.73 mg/dL

**Q.** What about the BUN (ARI caused by cisplatin; before cisplatin treatment) of the same substance?
**A.** 15.5 ± 1.7 mg/dL

**Q.** What about the body weight (ARI caused by cisplatin; before cisplatin treatment) of the same substance?
**A.** 376.9 ± 5.2 g

**Q.** And the serum creatinine (ARI caused by cisplatin; before cisplatin treatment)?
**A.** 0.4 ± 0.09 mg/dL

**Q.** And the “Cystatin C” value ([3]; Baseline)?
**A.** 708.6 ± 51.3 ng/mL

**Q.** What about the GFR ([3]; Baseline) of the same substance?
**A.** 140.0 ± 11.1 μl/min/100 g

**Q.** And the Scr ([3]; Baseline)?
**A.** 305.7 ± 15.1 µmol/L

**Q.** What about the U protein ([3]; Baseline) of the same substance?
**A.** 4.83 ± 1.03 mg/4 h

**Q.** What about the U vol ([3]; Baseline) of the same substance?
**A.** 15.4 ± 2.6 mL

**Q.** What about the Ucr ([3]; Baseline) of the same substance?
**A.** 3187.0 ± 196.9 µmol/L

**Q.** And the “Cystatin C” value ([3]; T1 (48 h post dye))?
**A.** 1008.1 ± 46.4 ng/mL

**Q.** And the GFR ([3]; T1 (48 h post dye))?
**A.** 149.3 ± 15.6 μl/min/100 g

**Q.** And the Scr ([3]; T1 (48 h post dye))?
**A.** 285.4 ± 12.0 µmol/L

**Q.** What about the U protein ([3]; T1 (48 h post dye)) of the same substance?
**A.** 4.71 ± 0.60 mg/4 h

**Q.** And the U vol ([3]; T1 (48 h post dye))?
**A.** 17.4 ± 1.6 mL

**Q.** What about the Ucr ([3]; T1 (48 h post dye)) of the same substance?
**A.** 2816 ± 163.6 µmol/L

**Q.** What about the “Cystatin C” value ([3]; T2 (72 h post dye)) of the same substance?
**A.** 1303.6 ± 147.1 ng/mL

**Q.** And the GFR ([3]; T2 (72 h post dye))?
**A.** 162.7 ± 18.7 μl/min/100 g

**Q.** And the Scr ([3]; T2 (72 h post dye))?
**A.** 295.7 ± 20.6 µmol/L

**Q.** What about the U protein ([3]; T2 (72 h post dye)) of the same substance?
**A.** 3.59 ± 1.0 mg/4 h

**Q.** And the U vol ([3]; T2 (72 h post dye))?
**A.** 20.5 ± 2.3 mL

**Q.** What about the Ucr ([3]; T2 (72 h post dye)) of the same substance?
**A.** 2675.4 ± 100.8 µmol/L
